Laboratory results published in ChEMBL document CHEMBL4834393, “Building a Chemical Toolbox for Human Pregnane X Receptor Research: Discovery of Agonists, Inverse Agonists, and Antagonists Among Analogs Based on the Unique Chemical Scaffold of SPA70” (J Med Chem, 2021).
Active and inactive are the calls of the source. The calls are words filed in the database; no cut-off is given here.

How the values were obtained:
[1] = biological target: T1, Nuclear receptor subfamily 1 group I member 2 (Homo sapiens, UniProt O75469); test: Displacement of BODIPY FL vindoline from GST-tagged human PXR LBD incubated for 60 mins by TR-FRET assay
T1 sequence (O75469 whole entry): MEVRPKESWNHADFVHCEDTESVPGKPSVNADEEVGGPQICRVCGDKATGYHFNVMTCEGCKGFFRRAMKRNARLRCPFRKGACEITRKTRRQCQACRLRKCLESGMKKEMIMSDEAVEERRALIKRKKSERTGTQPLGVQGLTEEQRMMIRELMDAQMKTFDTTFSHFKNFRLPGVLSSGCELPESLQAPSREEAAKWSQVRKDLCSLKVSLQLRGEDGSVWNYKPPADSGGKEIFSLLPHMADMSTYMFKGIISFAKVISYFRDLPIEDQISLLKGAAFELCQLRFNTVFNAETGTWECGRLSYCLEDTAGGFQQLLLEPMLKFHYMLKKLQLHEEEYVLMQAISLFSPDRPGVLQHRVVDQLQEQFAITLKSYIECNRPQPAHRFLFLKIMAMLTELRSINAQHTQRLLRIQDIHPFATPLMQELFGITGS

PXR (NR1I2) [2] = biological target: T2, PXR (NR1I2) (Homo sapiens, UniProt O75469); test: Inhibition of human PXR expressed in HepG2 cells co-expressing luciferase gene under control of CYP3A4 promoter at 10 uM incubated for 24 hrs in presence of 5 uM rifampicin by luciferase reporter assay relative to control; assay type: cell-based
T2 sequence (O75469 whole entry): T1 sequence (O75469 whole entry)

PXR (NR1I2) [3] = biological target: T2, PXR (NR1I2); test: Agonist activity at human PXR expressed in HepG2 cells co-expressing luciferase gene under control of CYP3A4 promoter at 10 uM incubated for 24 hrs by luciferase reporter assay relative to control
[4] = biological target: T1, Nuclear receptor subfamily 1 group I member 2; test: Antagonist activity at human PXR expressed in HepG2 cells co-expressing luciferase gene under control of CYP3A4 promoter incubated for 24 hrs in presence of 5 uM rifampicin by luciferase reporter assay
[5] = biological target: T1, Nuclear receptor subfamily 1 group I member 2; test: Agonist activity at human PXR expressed in HepG2 cells co-expressing luciferase gene under control of CYP3A4 promoter incubated for 24 hrs by luciferase reporter assay
PXR (NR1I2) [6] = biological target: T2, PXR (NR1I2); test: Displacement of BODIPY FL vindoline from GST-tagged human PXR LBD at 10 uM incubated for 60 mins by TR-FRET assay relative to control; conditions: GST-tagged human PXR LBD (recombinant protein), probe BODIPY FL vindoline
HepG2 = test: Cytotoxicity against human HepG2 cells co-expressing luciferase gene under control of CYP3A4 promoter measured after 24 hrs by CellTiter-Glo luminescent cell viability assay; assay type: ADME, cell-based; conditions: for Activity: human, hepg2, 24 h, time 24 hrs
[7] = biological target: T3, Bile acid receptor (Homo sapiens) (UniProt Q96RI1); test: Agonist activity at human FXR expressed in HEK293T cells by luciferase reporter assay; assay type: cell-based
T3 sequence (whole entry): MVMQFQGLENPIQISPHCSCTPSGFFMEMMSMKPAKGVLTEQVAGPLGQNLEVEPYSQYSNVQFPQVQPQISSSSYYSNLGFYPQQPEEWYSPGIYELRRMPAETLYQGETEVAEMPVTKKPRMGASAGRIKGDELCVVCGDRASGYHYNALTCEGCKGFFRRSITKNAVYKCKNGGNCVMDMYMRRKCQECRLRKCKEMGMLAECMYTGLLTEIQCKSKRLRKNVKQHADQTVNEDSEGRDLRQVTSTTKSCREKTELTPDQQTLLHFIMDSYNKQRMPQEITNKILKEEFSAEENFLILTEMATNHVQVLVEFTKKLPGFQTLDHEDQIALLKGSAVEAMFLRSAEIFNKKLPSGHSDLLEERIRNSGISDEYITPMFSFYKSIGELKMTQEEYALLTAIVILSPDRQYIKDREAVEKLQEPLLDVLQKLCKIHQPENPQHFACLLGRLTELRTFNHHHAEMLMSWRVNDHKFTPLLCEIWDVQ

[8] = biological target: T4, Vitamin D3 receptor (Homo sapiens) (UniProt P11473); test: Antagonist activity at human VDR expressed in HEK293T cells in presence of 1alpha,25-dihydroxyvitamin D3 by luciferase reporter assay; assay type: cell-based
T4 sequence (whole entry): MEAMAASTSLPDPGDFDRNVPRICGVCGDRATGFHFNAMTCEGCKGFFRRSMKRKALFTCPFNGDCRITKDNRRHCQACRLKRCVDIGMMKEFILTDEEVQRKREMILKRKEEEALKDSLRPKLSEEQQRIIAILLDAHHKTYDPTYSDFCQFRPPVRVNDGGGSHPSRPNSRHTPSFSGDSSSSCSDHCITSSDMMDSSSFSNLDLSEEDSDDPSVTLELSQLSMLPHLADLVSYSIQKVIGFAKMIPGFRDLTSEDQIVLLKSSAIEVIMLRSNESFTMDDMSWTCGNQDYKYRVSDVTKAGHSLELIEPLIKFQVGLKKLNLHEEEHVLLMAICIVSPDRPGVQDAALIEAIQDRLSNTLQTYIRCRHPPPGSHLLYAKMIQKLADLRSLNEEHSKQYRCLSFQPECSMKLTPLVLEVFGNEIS

[9] = system: constitutive androstane receptor, NR1I3 (Homo sapiens); test: Agonist activity at human CAR by luciferase reporter assay
[10] = biological target: T3, Bile acid receptor (Homo sapiens); test: Antagonist activity at human FXR expressed in HEK293T cells in presence of GW4064 by luciferase reporter assay; assay type: cell-based
[11] = biological target: T4, Vitamin D3 receptor (Homo sapiens); test: Agonist activity at human VDR expressed in HEK293T cells by luciferase reporter assay; assay type: cell-based
[12] = biological target: T5, Nuclear receptor subfamily 1 group I member 2 (Mus musculus, UniProt O54915); test: Antagonist activity at mouse PXR in presence of PCN by luciferase reporter assay
T5 sequence (O54915 whole entry): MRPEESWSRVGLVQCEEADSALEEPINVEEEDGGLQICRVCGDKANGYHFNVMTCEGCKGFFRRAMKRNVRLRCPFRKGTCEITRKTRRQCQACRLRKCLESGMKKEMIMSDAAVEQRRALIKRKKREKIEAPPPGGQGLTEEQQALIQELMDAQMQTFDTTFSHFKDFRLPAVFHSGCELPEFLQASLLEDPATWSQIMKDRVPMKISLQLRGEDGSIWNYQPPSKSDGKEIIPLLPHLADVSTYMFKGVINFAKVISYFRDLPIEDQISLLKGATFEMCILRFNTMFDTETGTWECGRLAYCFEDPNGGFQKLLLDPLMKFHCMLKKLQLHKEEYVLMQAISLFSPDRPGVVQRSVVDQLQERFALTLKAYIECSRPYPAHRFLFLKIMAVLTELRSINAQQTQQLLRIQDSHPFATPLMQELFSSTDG

[13] = biological target: T5, Nuclear receptor subfamily 1 group I member 2; test: Agonist activity at mouse PXR by luciferase reporter assay; assay type: ADME

SMILES: COc1cc(C)c(Cl)cc1-n1nnc(S(=O)(=O)c2ccc(C(C)(C)C)cc2)c1C
- IC50 [1]: 1200 nM
- inhibition at 24 h, 10 µM (PXR (NR1I2) [2]): 64%
- activity at 24 h, 10 µM (PXR (NR1I2) [3]): 33%
- IC50 [4]: 2300 nM
- EC50 [5]: 1000 nM
- inhibition at 1 h, 10 µM (PXR (NR1I2) [6]): 87%

SMILES: COc1cc(C(C)=O)c(C)cc1-n1nnc(S(=O)(=O)c2ccc(C(C)(C)C)cc2)c1C
- IC50 (HepG2; Homo sapiens, HepG2, 24 h): 16500 nM
- IC50 [1]: 1400 nM
- inhibition at 24 h, 10 µM (PXR (NR1I2) [2]): 111%
- activity at 24 h, 10 µM (PXR (NR1I2) [3]): 77%
- IC50 [4]: 9000 nM
- EC50 [5]: 400 nM
- inhibition at 1 h, 10 µM (PXR (NR1I2) [6]): 80%

SMILES: COc1cc(Cl)c(C)cc1-n1nnc(S(=O)(=O)c2ccc(C(C)(C)C)cc2)c1C
- IC50 [1]: 700 nM
- inhibition at 24 h, 10 µM (PXR (NR1I2) [2]): 57%
- activity at 24 h, 10 µM (PXR (NR1I2) [3]): 51%
- IC50 [4]: 2000 nM
- EC50 [5]: 800 nM
- inhibition at 1 h, 10 µM (PXR (NR1I2) [6]): 71%

SMILES: COc1ccc(F)cc1-n1nnc(S(=O)(=O)c2ccc(C(C)(C)C)cc2)c1C
- Activity (HepG2): Non-Toxic
- Activity [7]: inactive
- IC50 [1]: 400 nM
- Activity [8]: inactive
- Activity [9]: inactive
- inhibition at 24 h, 10 µM (PXR (NR1I2) [2]): 70%
- activity at 24 h, 10 µM (PXR (NR1I2) [3]): 37%
- IC50 [4]: 700 nM
- Activity [10]: inactive
- EC50 [5]: 240 nM
- Activity [11]: inactive
- inhibition at 1 h, 10 µM (PXR (NR1I2) [6]): 80%
- Activity [12]: Not Active

SMILES: COc1ccc(OC)c(-n2cc(S(=O)(=O)c3ccc(C(C)(C)C)cc3)nn2)c1
- IC50 [1]: 1400 nM
- inhibition at 24 h, 10 µM (PXR (NR1I2) [2]): 71%
- activity at 24 h, 10 µM (PXR (NR1I2) [3]): 35%
- IC50 [4]: 3400 nM
- EC50 [5]: 1400 nM
- inhibition at 1 h, 10 µM (PXR (NR1I2) [6]): 98%

SMILES: COC(=O)c1cc(OC)c(-n2nnc(S(=O)(=O)c3ccc(C(C)(C)C)cc3)c2C)cc1C
- IC50 [1]: 1500 nM
- inhibition at 24 h, 10 µM (PXR (NR1I2) [2]): 32%
- activity at 24 h, 10 µM (PXR (NR1I2) [3]): 75%
- IC50 [4]: 6000 nM
- EC50 [5]: 1600 nM
- inhibition at 1 h, 10 µM (PXR (NR1I2) [6]): 64%

SMILES: COc1ccc(Cl)cc1-n1nnc(S(=O)(=O)c2ccc(C(C)(C)C)cc2)c1C#N
- Activity (HepG2): Non-Toxic
- Activity [7]: inactive
- IC50 [1]: 61 nM
- Activity [8]: inactive
- Activity [13]: Not Active
- Activity [9]: inactive
- activity at 24 h, 10 µM (PXR (NR1I2) [3]): 105%
- Activity [10]: inactive
- EC50 [5]: 80 nM
- Activity [11]: inactive
- inhibition at 1 h, 10 µM (PXR (NR1I2) [6]): 90%
- Activity [12]: Not Active

SMILES: COc1ccc(OC)c(-n2nnc(S(=O)(=O)c3ccc(C(C)(C)C)cc3)c2C#N)c1
- IC50 [1]: 300 nM
- inhibition at 24 h, 10 µM (PXR (NR1I2) [2]): 38%
- activity at 24 h, 10 µM (PXR (NR1I2) [3]): 88%
- IC50 [4]: 2400 nM
- EC50 [5]: 260 nM
- inhibition at 1 h, 10 µM (PXR (NR1I2) [6]): 97%

SMILES: COc1ccc(Cl)cc1-n1nnc(S(=O)(=O)c2ccc(C(C)(C)C)cc2)c1N
- IC50 [1]: 500 nM
- inhibition at 24 h, 10 µM (PXR (NR1I2) [2]): 78%
- activity at 24 h, 10 µM (PXR (NR1I2) [3]): 42%
- IC50 [4]: 4400 nM
- EC50 [5]: 110 nM
- inhibition at 1 h, 10 µM (PXR (NR1I2) [6]): 93%
